Laboratory results as given in patent US20250381161A1, “COMPOSITIONS AND METHODS FOR TREATING HEARING AND OCULAR DISORDERS” (Anida Pharma Inc., priority 2022, published 2025).

Assay: Release of compound 1 in artificial tear medium from dialysis tubes into artificial tear fluid, quantified via HPLC
Assay type: physicochemical
Details: room temperature, 100 rpm
Experimental: 0.5 mL of unformulated compound 1 dissolved in artificial tear medium (i.e., equivalent to physiological buffer solution/PBS) was filled into dialysis tubes (Spectra/Por® Biotech CE MWCO 100-500, 10 mm), sealed and immersed into containers filled with 5 mL artificial tear fluid (ATF) serving as release medium (Table 2). The samples were incubated at room temperature and shaken at 100 rpm. After 0 hours, 0.5 hours, 1 hour, 2 hours, 4 hours and 24 hours, samples were withdrawn and the amount of released compound 1 was quantified via HPLC.

## CC/C=C\C[C@H](O)\C=C/C=C/C=C/[C@H](O)C/C=C\C/C=C\CCC(=O)[O-].[Na+] [Compound 1, Sodium (4Z,7Z,10R,11E,13E,15Z,17S, 19Z)-10,17-dihydroxydocosa-4,7,11,13,15,19-hexaenoate]
Time point 0.5 h
  Release (%): 0.8%
Time point 1 h
  Release (%): 2%
Time point 2 h
  Release (%): 7%
Time point 4 h
  Release (%): 17%
Time point 24 h
  Release (%): 59%
